The IC50 is the concentration needed to halve the response being measured.

The values that follow come from patent US6933290B2, “2-{N-(2-amino-3-(heteroaryl or aryl)propionyl)-aminoacyl}-amino}-alkylboronic acid derivatives” (Novartis AG, priority 2001, dated 2005).

Several values for one entry are separate records, joined by “and”; a condition that tells them apart may be missing. Equal entries are not always repeated.

For the test, the target named is T1, chymotrypsin-like activity of the 20S proteasome (Homo sapiens, UniProt P20618+P28074).
T1 construct: purified human placenta 20S proteasome; tissue Diabetes Forschungsinstitut, Düsseldorf, Germany; host or cells: human placenta
Nature of the test: Inhibition of the chymotrypsin-like activity of the 20S proteasome (Suc-LLVY-AMC hydrolysis). The note with it: purified human placenta 20S proteasome, Suc-LLVY-AMC substrate, read-out: IC50 [μM] (results of one or two experiments). It counts as biochemical. From the text: It is based on the hydrolysis of the fluorogenic peptide Suc-LLVY-AMC (Succinyl-leucine-leucine-vatine-tyrosine-7-amino-4-methyl-coumarin), which is cleaved exclusively at the Y-AMC bond by the 20S proteasome. Hydrolysis of this peptide is accompanied by an increase in fluorescence intensity (λex (excitation wavelength): 355 nm; μem (emission wavelength): 460 nm) due to release of the […] that accompanies diffusion apart of the hydrolysis product Suc-LLVY.
2 μl of a 1 mM solution of a test compound in DMSO (dimethylsulfoxide, 20 μM final concentration in the well) are preincubated for 60 min at room temperature in black 96-well microtiter plates together with a mixture of 1 μl purified human placenta 20S proteasome (Diabetes Forschungsinstitut, DÜsseldorf, Germany; about 100 ng proteasome, depending on the proteasome preparation) and 47 μl buffer-Ca (5 mM CaCl2, 20 mM Tris/HCl (Tris-(hydroxymethyl)-amino-methane hydrochloride) pH 8.0). 3 μl of a 2.67 mM solution of Suc-LLVY-AMC (Bachem, Switzerland) in DMSO (80 μM final concentration in the well) and 47 μl buffer-Ca are mixed and added. The resulting mixture is incubated for 3-24 h at 37° C. If desired, proteolysis of the substrate can be stopped by addition of 50 μl stop solution (100 mM monochloroacetic acid, 130 mM NaOH, 100 mM acetic acid, pH=4.3). The fluorescence is monitored with a FLUOROSKAN ASCENT™ microtiter plate reader.
For each measurement series two control experiments are carried out: • 1.) 0% value: 2 μl DMSO are used in the above described assay instead of 2 μl of a 1 mM solution of a test compound in DMSO and 48 μl buffer-Ca instead of a mixture of 47 μl buffer-Ca and 1 μl purified proteasome. • 2.) 100% value: in the above described assay 2 μl DMSO are used instead of 2 μl of a 1 mM solution of the test compound in DMSO. Calculation [formula]
The IC50 value is defined as that concentration of a compound at which the remaining activity is 50% compared to the […].
As for `COc1cc(C[C@H](Nc2cccc(-c3ccccn3)c2)C(=O)N[C@H](C(=O)N[C@@H](CC(C)C)B(O)O)C(C)C)cc(OC)c1OC` [Example 14, (R)-3-Methyl-1-[(S)-3-methyl-2-[(S)-2-(3-pyridin-2-yl-phenylamino)-3-(3,4,5-trimethoxy-phenyl)-propionylamino]-butyrylamino)-butylboronic acid], the IC50 turned out to be 0.0017 µM. To `CC(C)C[C@H](NC(=O)[C@@H](NC(=O)[C@H](Cc1ccc(OCc2ccccc2)cc1)NC(=O)Cc1cccc(OCc2ccccc2)c1)C(C)C)B(O)O` [Example 30, (R)-1-((S)-2{(S)-3-(4-Benzyloxy-phenyl)-2-[2-(3-benzyloxy-phenyl)-acetylamino]-propionylamino}-3-methyl-butyrylamino)-3-methyl-butylboronic acid] belongs 0.0059 µM.

Regarding `COc1cc(C[C@H](NC(=O)Cc2cccc(Oc3ccccc3)c2)C(=O)N[C@H](C(=O)N[C@@H](CC(C)C)B(O)O)C(C)C)cc(OC)c1OC` [Example 28, (R)-3-Methyl-1-{(S)-3-methyl-2-[(S)-2-[2-(3-phenoxy-phenyl)-acetylamino]-3-(3,4,5-trimethoxy-phenyl)-propionylamino]-butyrylamino}-butylboronic acid], the IC50 was found to be 0.0008 µM. In the case of `COc1cc(C[C@H](Nc2cccc(-c3ccccn3)c2)C(=O)N[C@H](C(=O)N[C@@H](CC(C)C)B2O[C@@H]3C[C@@H]4C[C@@H](C4(C)C)[C@]3(C)O2)C(C)C)cc(OC)c1OC` [Example 13, (S)-3-Methyl-N-[(R)-3-methyl-1-((1S,2S,6R,8S)-2,9,9-trimethyl-3,5-dioxa-4-bora-tricyclo[6.1.1.0^2,6]dec-4-yl)-butyl]-2-[(S)-2-(3-pyridin-2-yl-phenylamino)-3-(3,4,5-trimethoxy-phenyl)-propionylamino]-butyramide], the 50% inhibitory concentration (IC50) was found to be 0.0013 µM. To `COc1ccc(C[C@H](Nc2cccc(-c3ccccc3)c2)C(=O)N[C@H](C(=O)N[C@@H](Cc2ccccc2)B(O)O)C(C)C)cc1` [Example 52, (R)-1-{(S)-2-[(S)-2-(Biphenyl-3-ylamino)-3-(4-methoxy-phenyl)-propionylamino]-3-methyl-butyrylamino}-2-phenyl-ethylboronic acid] belongs 0.005 µM; to `COc1ccc(C[C@H](NC(=O)Cc2cccc(Oc3ccccc3)c2)C(=O)N[C@H](C(=O)N[C@@H](CC(C)C)B2O[C@@H]3C[C@@H]4C[C@@H](C4(C)C)[C@]3(C)O2)C(C)C)c(OC)c1OC` [Example 3, (S)-3-Methyl-N-[(R)-3-methyl-1-((1S,2S,6R,8S)-2,9,9-trimethyl-3,5-dioxa-4-bora-tricyclo[6.1.1.0^2,6]dec-4-yl)-butyl]-2-[(S)-2-[2-(3-phenoxy-phenyl)-acetylamino]-3-(2,3,4-trimethoxy-phenyl)-propionylamino]-butyramide], 0.0017 µM and 0.0014 µM.

In the case of `COc1ccc(C[C@H](Nc2cccc(-c3ccccc3)c2)C(=O)N[C@H](C(=O)N[C@@H](CC(C)C)B2O[C@@H]3C[C@@H]4C[C@@H](C4(C)C)[C@]3(C)O2)C(C)C)cc1OC` [Example 9, (S)-2-[(S)-2-(Biphenyl-3-ylamino)-3-(3,4-dimethoxy-phenyl)-propionylamino]-3-methyl-N-[(R)-3-methyl-1-((1S,2S,6R,8S)-2,9,9-trimethyl-3,5-dioxa-4-bora-tricyclo[6.1.1.0^2,6]dec-4-yl)-butyl]-butyramide], the half-maximal inhibitory concentration (IC50) was 0.0017 µM and 0.0022 µM. To `CC(C)C[C@H](NC(=O)[C@@H](NC(=O)[C@H](Cc1ccc(OCc2ccccc2)cc1)Nc1cccc(-c2ccccc2)c1)C(C)C)B(O)O` [Example 18, (R)-1-{(S)-2-[(S)-3-(4-Benzyloxy-phenyl)-2-(biphenyl-3-ylamino)-propionylamino]-3-methyl-butyrylamino}-3-methyl-butylboronic acid] belongs 0.0015 µM; to `COc1cc(C[C@H](Nc2cccc(C(C)C)c2)C(=O)N[C@H](C(=O)N[C@@H](CC(C)C)B2O[C@@H]3C[C@@H]4C[C@@H](C4(C)C)[C@]3(C)O2)C(C)C)cc(OC)c1OC` [Example 11, (S)-2-[(S)-2-(3-Isopropyl-phenylamino)-3-(3,4,5-trimethoxy-phenyl)-propionylamino]-3-methyl-N-[(R)-3-methyl-1-((1S,2S,6R,8S)-2,9,9-trimethyl-3,5-dioxa-4-bora-tricyclo[6.1.1.0^2,6]dec-4-yl)-butyl]-butyramide], 0.0039 µM. To “(R)-1-{(S)-2-[(S)-2-(3-Isopropyl-phenylamino)-3-(3,4,5-trimethoxy-phenyl)-propionylamino]-propionylamino}-3-methyl-butylboronic acid [Example 46]” belongs 0.0019 µM. Take `COc1cc(C[C@H](Nc2cccc(-c3ccccc3)c2)C(=O)N[C@@H](C)C(=O)N[C@@H](CC(C)C)B(O)O)cc(OC)c1OC` [Example 38, (R)-1-{(S)-2-[(S)-2-(Biphenyl-3-ylamino)-3-(3,4,5-trimethoxy-phenyl)-propionylamino]-propionylamino}-3-methyl-butylboronic acid]: the IC50 came to 0.0017 µM.

Take `COc1ccc(C[C@H](Nc2cccc(-c3ccccc3)c2)C(=O)N[C@@H](C)C(=O)N[C@@H](CC(C)C)B2O[C@@H]3C[C@@H]4C[C@@H](C4(C)C)[C@]3(C)O2)cc1OC` [Example 43, (S)-2-(Biphenyl-3-ylamino)-3-(3,4-dimethoxy-phenyl)-N-{(S)-1-[(R)3-methyl-1-((1S,2S,6R,8S)-2,9,9-trimethyl-3,5-dioxa-4-bora-tricyclo[6.1.1.0^2,6]dec-4-yl)-butylcarbamoyl]-ethyl}-propionamide]: the IC50 was determined as 0.0018 µM. As for `COc1ccc(C[C@H](Nc2cccc(-c3ccccc3)c2)C(=O)N[C@@H](C)C(=O)N[C@@H](CC(C)C)B(O)O)cc1OC` [Example 44, (R)-1-{(S)-2-[(S)-2-(Biphenyl-3-ylamino)-3-(3,4-dimethoxy-phenyl)-propionylamino]-propionylamino}-3-methyl-butylboronic acid], the figure is 0.001 µM; as for `COc1cc(C[C@H](Nc2cccc(-c3ccccc3)c2)C(=O)N[C@H](C(=O)N[C@@H](CC(C)C)B(O)O)C(C)C)cc(OC)c1OC` [Example 2, (R)-1-{(S)-2-[(S)-2-(Biphenyl-3-ylamino)-3-(3,4,5-trimethoxy-phenyl)-propionylamino]-3-methyl-butyrylamino}-3-methyl-butylboronic acid], 0.0028 µM and 0.0021 µM; as for `COc1ccc(C[C@H](NC(=O)CCc2ccccc2)C(=O)N[C@H](C(=O)N[C@@H](CC(C)C)B(O)O)C(C)C)c(OC)c1OC` [Example 6, (R)-3-Methyl-1-{(S)-3-methyl-2-[(S)-2-(3-phenyl-propionylamino)-3-(2,3,4-trimethoxy-phenyl)-propionylamino]-butyrylamino}-butylboronic acid], 0.0018 µM and 0.0019 µM.

`COc1cc(C[C@H](Nc2cccc(-c3ccccc3)c2)C(=O)N[C@@H](CC(C)C)C(=O)N[C@@H](CC(C)C)B2O[C@@H]3C[C@@H]4C[C@@H](C4(C)C)[C@]3(C)O2)cc(OC)c1OC` [Example 31, (S)-2-[(S)-2-(Biphenyl-3-ylamino)-3-(3,4,5-trimethoxy-phenyl)-propionylamino]-4-methyl-pentanoic acid [(R)-3-methyl-1-((1S,2S,6R,8S)-2,9,9-trimethyl-3,5-dioxa-4-bora-tricyclo[6.1.1.0^2,6]dec-4-yl)-butyl]-amide]: the IC50 was found to be 0.0022 µM. For `COc1cc(C[C@H](Nc2cccc(-c3ccccc3)c2)C(=O)N[C@H](C(=O)NC(CC(C)C)B(O)O)C(C)C)cc(OC)c1OC` (stereo partly drawn) [Example 24, 1-{(S)-2-[(S)-2-(Biphenyl-3-ylamino)-3-(3,4,5-trimethoxy-phenyl)-propionylamino]-3-methyl-butyrylamino}-3-methyl-butylboronic acid], the IC50 was determined as 0.0021 µM. To `CC(C)C[C@H](NC(=O)[C@@H](NC(=O)[C@H](Cc1ccc(OCc2ccccc2)cc1)Nc1cccc(-c2ccccc2)c1)C(C)C)B1O[C@@H]2C[C@@H]3C[C@@H](C3(C)C)[C@]2(C)O1` [Example 17, (S)-2-[(S)-3-(4-Benzyloxy-phenyl)-2-(biphenyl-3-ylamino)-propionylamino]-3-methyl-N-[(R)-3-methyl-1-((1S,2S,6R,8S)-2,9-trimethyl-3,5-dioxa-4-bora-tricyclo[6.1.1.0^2,6]dec-4-yl)-butyl]-butyramide] belongs 0.0093 µM; to `COc1ccc(C[C@H](Nc2cccc(-c3ccccc3)c2)C(=O)N[C@H](C(=O)N[C@@H](CC(C)C)B2O[C@@H]3C[C@@H]4C[C@@H](C4(C)C)[C@]3(C)O2)C(C)C)c(OC)c1OC` [Example 15, (S)-2-[(S)-2-(Biphenyl-3-ylamino)-3-(2,3,4-trimethoxy-phenyl)-propionylamino]-3-methyl-N-[(R)-3-methyl-1-((1S,2S,6R,8S)-2,9,9-trimethyl-3,5-dioxa-4-bora-tricyclo[6.1.1.0^2,6]dec-4-yl)-butyl]-butyramide], 0.0071 µM.
